The text below walks through data of US11932624B2, “MDM2 degraders and uses thereof” (Kymera Therapeutics, Inc., priority 2020, dated 2024).

For the test, the system named is RS411 cells. The test is described as follows: Cell Viability CTG Assay (CellTiter Glo) in RS411 cells. It counts as cell-based. As to conditions: Homo sapiens. The gist of the method:
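RS411 cells at 1000 cells/well were exposed to compound (top final 10 μM, 3-fold, 11 doses; 0.2% DMSO) at 37 °C, 5% CO2 for 1-4 days. Viability was read by CellTiter Glo luminescence after 10 min at RT. IC50 is reported as letter-code bins.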

`Cn1c(=O)n(C2CCC(=O)NC2=O)c2cccc(CN3CCC(OC4CCN(C[C@H]5CC[C@H](NC(=O)[C@@H]6NC7(CCC(C)(C)CC7)[C@@]7(C(=O)Nc8cc(Cl)ccc87)[C@H]6c6cccc(Cl)c6F)CC5)CC4)CC3)c21` (stereo partly shown) [I-111]: where the note is “RS4-11, 24 h, duration 1 day”, the IC50 was < 50 nM. On to `COc1cc2c(cc1OC(C)C)[C@H](c1ccc(Cl)cc1)N(c1ccc(N(C)CC3CCN(C(=O)CCCCCc4ccc5c(c4)n(C)c(=O)n5C4CCC(=O)NC4=O)CC3)cc1)C(=O)C2` (stereo partly shown) [I-179], for which, for the setting “RS4-11, 24 h, duration 1 day”, the IC50 was < 50 nM. `CC(C)[C@@H](CS(=O)(=O)C(C)C)N1C(=O)[C@@](C)(CC(=O)Nc2ccc(C(=O)NCCCC#Cc3cccc4c3CN(C3CCC(=O)NC3=O)C4=O)cc2)C[C@H](c2cccc(Cl)c2)[C@H]1c1ccc(Cl)cc1` (stereo partly shown) [I-27]: the half-inhibitory concentration (IC50) (RS4-11, 72 h, duration 3 days) is 100 to 500 nM. In the case of `COc1cc(C(=O)NCCCCCCCC(=O)N[C@H](C(=O)N2C[C@H](O)C[C@H]2C(=O)NCc2ccc(-c3scnc3C)cc2)C(C)(C)C)ccc1NC(=O)[C@@H]1N[C@@H](CC(C)(C)C)[C@](C#N)(c2ccc(Cl)cc2F)[C@H]1c1cccc(Cl)c1F` [I-19], for the setting “RS4-11, 96 h, duration 4 days”, the IC50 was < 50 nM. Regarding `Cn1c(=O)n(C2CCC(=O)NC2=O)c2cccc(C3CCN(C[C@H]4CC[C@H](NC(=O)[C@@H]5NC6(CCCCC6)[C@@]6(C(=O)Nc7cc(Cl)ccc76)[C@H]5c5cccc(Cl)c5F)CC4)CC3)c21` (stereo partly shown) [I-109], the IC50 (RS4-11, 24 h, duration 1 day) was < 50 nM.

As to `Cn1c(=O)n(C2CCC(=O)NC2=O)c2cccc(CCCN3CCN(CCCNC(=O)[C@@H]4NC5(CCCCC5)[C@@]5(C(=O)Nc6cc(Cl)ccc65)[C@H]4c4cccc(Cl)c4F)CC3)c21` (stereo partly shown) [I-141], for the setting “RS4-11, 24 h, duration 1 day”, the concentration for half-maximal inhibition (IC50) is > 1000 nM. The compound `O=C1CCN(c2cncc3cc(C#CC4CCN(C[C@H]5CC[C@H](NC(=O)[C@@H]6NC7(CCCCC7)[C@@]7(C(=O)Nc8cc(Cl)ccc87)[C@H]6c6cccc(Cl)c6F)CC5)CC4)ccc23)C(=O)N1` [I-142] gave an IC50 (RS4-11, 24 h, duration 1 day) of 50 to 100 nM. Turning to `CCN1[C@@H](C(=O)NC23CCC(C(=O)NCCCCCc4ccc5c(c4)n(C)c(=O)n5C4CCC(=O)NC4=O)(CC2)CC3)[C@H](c2cccc(Cl)c2F)[C@]2(C(=O)Nc3cc(Cl)ccc32)C12CCCCC2` (stereo partly shown) [I-42], the IC50 (RS4-11, 24 h, duration 1 day) was < 50 nM. For `CN1[C@@H](C(=O)Nc2ccc(CN3CCC(CCc4ccc5c(c4)n(C)c(=O)n5C4CCC(=O)NC4=O)CC3)cc2)[C@H](c2cccc(Cl)c2F)[C@]2(C(=O)Nc3cc(Cl)ccc32)C12CCCCC2` (stereo partly shown) [I-77], where the note is “RS4-11, 24 h, duration 1 day”, the IC50 is < 50 nM. Still for that read-out and setting: as for `Cn1c(=O)n(C2CCC(=O)NC2=O)c2ccc(CN3CCN(C(=O)[C@H]4CC[C@H](NC(=O)C5NC6(CCCCC6)[C@@]6(C(=O)Nc7cc(Cl)ccc76)[C@H]5c5cccc(Cl)c5F)CC4)CC3)cc21` (stereo partly shown) [I-183], the figure is < 50 nM; as for `Cc1ncsc1-c1ccc(CNC(=O)[C@@H]2C[C@@H](O)CN2C(=O)[C@@H](NC(=O)COCCOCC2CCN(C[C@H]3CC[C@H](NC(=O)[C@@H]4NC5(CCCCC5)[C@@]5(C(=O)Nc6cc(Cl)ccc65)[C@H]4c4cccc(Cl)c4F)CC3)CC2)C(C)(C)C)cc1` [I-188], > 1000 nM.

In the case of `Cn1c(=O)n(C2CCC(=O)NC2=O)c2ccc(C#CC3CN(C[C@H]4C[C@H](NC(=O)[C@@H]5NC6(CCC(C)(C)CC6)[C@@]6(C(=O)Nc7cc(Cl)ccc76)[C@H]5c5cccc(Cl)c5F)C4)C3)cc21` (stereo partly shown) [I-122], the IC50 (RS4-11, 24 h, duration 1 day) was < 50 nM. On the same count and under the same terms, under `Cn1c(=O)n(C2CCC(=O)NC2=O)c2ccc(C3CCN(C(=O)c4ccc(NC(=O)[C@@H]5NC6(CCCCC6)[C@@]6(C(=O)Nc7cc(Cl)ccc76)[C@H]5c5cccc(Cl)c5F)cc4)CC3)cc21` (stereo partly shown) [I-176] stands < 50 nM; under `COc1cc2c(cc1OC(C)C)C(c1ccc(Cl)cc1)N(c1ccc(N(C)C[C@H]3CC[C@H](NCC(=O)NCCCCCc4ccc5c(c4)n(C)c(=O)n5C4CCC(=O)NC4=O)CC3)cc1)C(=O)C2` (stereo partly shown) [I-92, 2-[[4-[[4-[1-(4-Chlorophenyl)-7-isopropoxy-6-methoxy-3-oxo-1,4-dihydroisoquinolin-2-yl]-N-methyl-anilino]methyl]cyclohexyl]amino]-N-[5-[1-(2,6-dioxo-3-piperidyl)-3-methyl-2-oxo-benzimidazol-5-yl]pentyl]acetamide], < 50 nM. In the case of `Cn1c(=O)n(C2CCC(=O)NC2=O)c2ccc(C#CCCNC(=O)c3ccc(NC(=O)[C@@H]4NC5(CCCCC5)[C@@]5(C(=O)Nc6cc(Cl)ccc65)[C@H]4c4cccc(Cl)c4F)cc3)cc21` (stereo partly shown) [I-48], the IC50 (RS4-11, 24 h, duration 1 day) is < 50 nM. Consider `Cn1c(=O)n(C2CCC(=O)NC2=O)c2cccc(CCCC(=O)N3CCN(C(=O)c4ccc(NC(=O)[C@@H]5NC6(CCCCC6)[C@@]6(C(=O)Nc7cc(Cl)ccc76)[C@H]5c5cccc(Cl)c5F)cc4)CC3)c21` (stereo partly shown) [I-50], for which the IC50 (RS4-11, 24 h, duration 1 day) was < 50 nM. For the compound `Cn1c(=O)n(C2CCC(=O)NC2=O)c2ccc(C#CC3CCN(C[C@H]4CC[C@H](NC(=O)[C@@H]5NC6(CCC(C)(C)CC6)[C@@]6(C(=O)Nc7cc(Cl)ccc76)[C@H]5c5cccc(Cl)c5F)CC4)CC3)cc21` (stereo partly shown) [I-68], the IC50 (RS4-11, 24 h, duration 1 day) is < 50 nM. For the compound `Cn1c(=O)n(C2CCC(=O)NC2=O)c2ccc(CCCCCN3CCc4cc(NC(=O)[C@@H]5NC6(CCCCC6)[C@@]6(C(=O)Nc7cc(Cl)ccc76)[C@H]5c5cccc(Cl)c5F)ccc4C3)cc21` (stereo partly shown) [I-189], the IC50 (RS4-11, 24 h, duration 1 day) is < 50 nM.

With `COc1cc2c(cc1OC(C)C)[C@H](c1ccc(Cl)cc1)N(c1ccc(N(C)C[C@H]3CC[C@H](N4CCN(CCc5ccc6c(c5)n(C)c(=O)n6C5CCC(=O)NC5=O)CC4)CC3)cc1)C(=O)C2` (stereo partly shown) [I-211], the IC50 (RS4-11, 24 h, duration 1 day) is < 50 nM.

For the setting “RS4-11, 96 h, duration 4 days”, `Cc1ncsc1-c1ccc(CNC(=O)[C@@H]2C[C@@H](O)CN2C(=O)[C@@H](NC(=O)CCCCCCCNC(=O)C[C@@]2(C)C[C@H](c3cccc(Cl)c3)[C@@H](c3ccc(Cl)cc3)N([C@H](CS(=O)(=O)C(C)C)C(C)C)C2=O)C(C)(C)C)cc1` [I-10] showed an IC50 of 100 to 500 nM.

In the case of `Cn1c(=O)n(C2CCC(=O)NC2=O)c2cccc(N3CCC4(CCN(C(=O)c5ccc(NC(=O)[C@@H]6NC7(CCCCC7)[C@@]7(C(=O)Nc8cc(Cl)ccc87)[C@H]6c6cccc(Cl)c6F)cc5)CC4)CC3)c21` (stereo partly shown) [I-55], under “RS4-11, 24 h, duration 1 day”, the IC50 was in the range of 50 to 100 nM. For `COc1cc(C(=O)NCCCC#Cc2cccc3c2n(C)c(=O)n3C2CCC(=O)NC2=O)ccc1NC(=O)[C@@H]1N[C@@H](CC(C)(C)C)[C@](C#N)(c2ccc(Cl)cc2F)[C@H]1c1cccc(Cl)c1F` (stereo partly shown) [I-30], the IC50 (RS4-11, 96 h, duration 4 days) was < 50 nM. For `Cn1c(=O)n(C2CCC(=O)NC2=O)c2ccc(C3CCN(C(=O)[C@H]4CC[C@H](NC(=O)[C@@H]5NC6(CCC(C)(C)CC6)[C@@]6(C(=O)Nc7cc(Cl)ccc76)[C@H]5c5ccnc(Cl)c5F)CC4)CC3)cc21` (stereo partly shown) [I-177], the IC50 (RS4-11, 24 h, duration 1 day) was < 50 nM. In the case of `Cn1c(=O)n(C2CCC(=O)NC2=O)c2cccc(NCC3CC4(C3)CN(C(=O)c3ccc(NC(=O)[C@@H]5NC6(CCCCC6)[C@@]6(C(=O)Nc7cc(Cl)ccc76)[C@H]5c5cccc(Cl)c5F)cc3)C4)c21` (stereo partly shown) [I-59], the IC50 (RS4-11, 24 h, duration 1 day) is < 50 nM. Consider `CN(CCCCCc1ccc2c(c1)n(C)c(=O)n2C1CCC(=O)NC1=O)C[C@H]1CC[C@H](NC(=O)[C@@H]2NC3(CCC(C)(C)CC3)[C@@]3(C(=O)Nc4cc(Cl)ccc43)[C@H]2c2cccc(Cl)c2F)CC1` (stereo partly shown) [I-66], for which the IC50 (RS4-11, 24 h, duration 1 day) is < 50 nM.

In the case of `Cn1c(=O)n(C2CCC(=O)NC2=O)c2cccc(CN3CCC(OC4CCN(C(=O)c5ccc(NC(=O)[C@@H]6NC7(CCCCC7)[C@@]7(C(=O)Nc8cc(Cl)ccc87)[C@H]6c6cccc(Cl)c6F)cc5)CC4)CC3)c21` (stereo partly shown) [I-49], the IC50 (RS4-11, 24 h, duration 1 day) is < 50 nM.

`CN1[C@@H](CN[C@H]2CC[C@H](C(=O)N3CCC(CCc4ccc5c(c4)n(C)c(=O)n5C4CCC(=O)NC4=O)CC3)CC2)[C@H](c2cccc(Cl)c2F)[C@]2(C(=O)Nc3cc(Cl)ccc32)C12CCCCC2` (stereo partly shown) [I-156]: the IC50 (RS4-11, 24 h, duration 1 day) was > 1000 nM. Under “RS4-11, 24 h, duration 1 day”, `O=C1CCN(c2cnc3cc(NCCCCCNC[C@H]4CC[C@H](NC(=O)[C@@H]5NC6(CCCCC6)[C@@]6(C(=O)Nc7cc(Cl)ccc76)[C@H]5c5cccc(Cl)c5F)CC4)ccn23)C(=O)N1` [I-184] came in with an IC50 of 50 to 100 nM. The compound `O=C1CCN(c2cncc3c(C#CC4CCN(C[C@H]5CC[C@H](NC(=O)[C@@H]6NC7(CCCCC7)[C@@]7(C(=O)Nc8cc(Cl)ccc87)[C@H]6c6cccc(Cl)c6F)CC5)CC4)cccc23)C(=O)N1` [I-146] registered an IC50 (RS4-11, 24 h, duration 1 day) of 100 to 500 nM.

Take `Cc1ccc2c(c1C1CCN(C[C@H]3CC[C@H](NC(=O)[C@@H]4NC5(CCCCC5)[C@@]5(C(=O)Nc6cc(Cl)ccc65)[C@H]4c4cccc(Cl)c4F)CC3)CC1)n(C)c(=O)n2C1CCC(=O)NC1=O` (stereo partly shown) [I-185]: the IC50 (RS4-11, 24 h, duration 1 day) is < 50 nM.

For `CC1(C)CCC2(CC1)N[C@@H](C(=O)N[C@H]1CC[C@H](CN3CCC(C#Cc4ccn5c(N6CCC(=O)NC6=O)cnc5c4)CC3)CC1)[C@H](c1ccnc(Cl)c1F)[C@]21C(=O)Nc2cc(Cl)ccc21` [I-164], the IC50 (RS4-11, 24 h, duration 1 day) was < 50 nM. On to `Cn1c(=O)n(C2CCC(=O)NC2=O)c2ccc(CCCCCNCc3ccc(NC(=O)[C@@H]4NC5(CCCCC5)[C@@]5(C(=O)Nc6cc(Cl)ccc65)[C@H]4c4cccc(Cl)c4F)cc3)cc21` (stereo partly shown) [I-126], for which, where the note is “RS4-11, 24 h, duration 1 day”, the IC50 was < 50 nM. As for `Cn1c(=O)n(C2CCC(=O)NC2=O)c2ccc(C#CC3CCN(C(=O)[C@H]4CC[C@H](NC(=O)[C@@H]5NC6(CCCCC6)[C@@]6(C(=O)Nc7cc(Cl)ccc76)[C@H]5c5cccc(Cl)c5F)CC4)CC3)cc21` (stereo partly shown) [I-69], where the note is “RS4-11, 24 h, duration 1 day”, the IC50 was < 50 nM. Take `Cn1c(=O)n(C2CCC(=O)NC2=O)c2cccc(C#CCN3CCC4(CC3)CN(C(=O)c3ccc(NC(=O)[C@@H]5NC6(CCCCC6)[C@@]6(C(=O)Nc7cc(Cl)ccc76)[C@H]5c5cccc(Cl)c5F)cc3)C4)c21` (stereo partly shown) [I-60]: the IC50 (RS4-11, 24 h, duration 1 day) was < 50 nM. Consider `Cn1c(=O)n(C2CCC(=O)NC2=O)c2ccc(CCCCCNC(=O)c3ccc(NC(=O)[C@@H]4NC5(CCCCC5)[C@@]5(C(=O)Nc6cc(Cl)ccc65)[C@H]4c4cccc(Cl)c4F)cc3)cc21` (stereo partly shown) [I-9], for which the IC50 (RS4-11, 96 h, duration 4 days) is < 50 nM. Take `Cn1c(=O)n(C2CCC(=O)NC2=O)c2ccc(N3CCN(C[C@H]4CC[C@H](NC(=O)[C@@H]5NC6(CCC(C)(C)CC6)[C@@]6(C(=O)Nc7cc(Cl)ccc76)[C@H]5c5ccnc(Cl)c5F)CC4)CC3)cc21` (stereo partly shown) [I-204]: the IC50 (RS4-11, 24 h, duration 1 day) was < 50 nM. As for `CN(CCC#Cc1cccc2c1n(C)c(=O)n2C1CCC(=O)NC1=O)C(=O)c1ccc(NC(=O)[C@@H]2NC3(CCCCC3)[C@@]3(C(=O)Nc4cc(Cl)ccc43)[C@H]2c2cccc(Cl)c2F)cc1` (stereo partly shown) [I-62], the 50% inhibitory concentration (IC50) (RS4-11, 24 h, duration 1 day) was in the range of 50 to 100 nM.

The IC50 is the point on the concentration scale where inhibition reaches its midpoint. Lower therefore signals inhibition by little substance.
